# From patent US20250042862A1, “AROMATIC HETEROCYCLIC COMPOUND AND APPLICATION THEREOF” (Shanghai Institute of Materia Medica, Chinese Academy of …, priority 2021, published 2025)
# Molecular target: human recombinant LSD1 protein (Homo sapiens (Human), UniProt O60341)
# Experiment: In vitro enzyme inhibition activity assay - LSD1 (Lance Ultra TR-FRET)
# Format: biochemical
# Settings: all compounds tested in the form of hydrochloride
# Description: The purpose of this experiment was to test the in vitro inhibitory activity of the compounds against LSD1. The human recombinant LSD1 protein used in the experiment was purchased from Active Motif, and the enzyme level activity testing assay of LSD1 was performed using the Lance Ultra LSD1 Histone H3 Lysine 4 Demethylase Assay Kit (PerkinElmer). Tris-buffer (50 mMTris-HCl, 50 mMNaCl, 0.01% Tween-20, 1 mM DTT, 10 μM FAD, 10% glycerol, pH 9.0) was first prepared, and after preparation, the LSD1 fractions required for test were placed in this buffer and incubated for one hour at room temperature; the fractions included 4 μL of substrate solution ([…] Bio-H3K4me2, 1-24aa), 4 μL of enzyme solution (4 nM LSD1), and 2 μL of inhibitor in a 384-well microplate. After these operations, another 5 μL of assay mixture containing Eu-labeled H3K4me0 antibody and ULight-Streptavidin anti-biotin protein was added to the system, after which the fluorescence intensity of the components to be tested was detected by using Envision (PerkinElmer) in TR-FRET mode (excitation wavelength of 320 nm, emission wavelength of 620 nm). The test was repeated a total of three times to minimize errors. The final IC50 data were calculated by the software GraphPad Prism 5, and finally the sigmoidal dose-response (variable slope) method was used to obtain the fitted curve.
# The LSD1 inhibitory activities of representative compounds of the present application as well as the positive control compound CC90011 were provided in Table 2. All compounds were tested in the form of hydrochloride.
row,IC50,Structure (SMILES)
1,≤ 30 nM,"N#Cc1ccc(-c2nc(N3CCC(N)CC3)nc3cc(F)c(-c4ccccc4F)cc23)cc1F [Compound 78, 4-(2-(4-aminopiperidin-1-yl)-7-fluoro-6-(2-fluorophenyl)quinazolin-4-yl)-2-fluorobenzonitrile]"
2,30 to 300 nM,"Cc1cscc1-c1ccc2nc(NC[C@H]3CCNC3)nc(-c3ccc(C#N)c(F)c3)c2c1 [Compound 44, (S)-2-fluoro-4-(6-(4-methylthiophen-3-yl)-2-((pyrrolidin-3-ylmethyl)amino)quinazolin-4-yl)benzonitrile]"
3,30 to 300 nM,"Cc1cccc(-c2ccc3nc(N4CCC(N)CC4)nc(-c4ccc(C#N)c(F)c4)c3c2)c1 [Compound 8, 4-(2-(4-aminopiperidin-1-yl)-6-(m-methylphenyl)quinazolin-4-yl)-2-fluorobenzonitrile]"
4,≤ 30 nM,"CN(C)C1CCN(c2nc(-c3ccc(C#N)c(F)c3)c3cc(-c4c(F)cccc4C(F)(F)F)ccc3n2)CC1 [Compound 73, 4-(2-(4-(Dimethylamino)piperidin-1-yl)-6-(2-fluoro-6-(trifluoromethyl)phenyl)quinazolin-4-yl)-2-fluorobenzonitrile]"
5,30 to 300 nM,N#Cc1ccc(-c2nc(NC[C@H]3CCNC3)nc3ccc(-c4c(F)ccc(O)c4F)cc23)cc1F [Compound 60]
6,30 to 300 nM,"Cc1noc(C)c1-c1ccc2nc(N3CCC(N)CC3)nc(-c3ccc(C#N)c(F)c3)c2c1 [Compound 3, 4-(2-(4-aminopiperidin-1-yl)-6-(3,5-dimethylisoxazol-4-yl)quinazolin-4-yl)-2-fluorobenzonitrile]"
7,30 to 300 nM,"N#Cc1ccc(-c2nc(N3CCC(N)CC3)nc3ccc(-c4ccccc4F)cc23)cc1F [Compound 15, 4-(2-(4-aminopiperidin-1-yl)-6-(2-fluorophenyl)quinazolin-4-yl)-2-fluorobenzonitrile]"
8,≤ 30 nM,"Cc1cccc(Cl)c1-c1ccc2nc(N3CCC(N)CC3)nc(-c3ccc(C#N)c(F)c3)c2c1 [Compound 21, 4-(2-(4-Aminopiperidin-1-yl)-6-(2-chloro-6-methylphenyl)quinazolin-4-yl)-2-fluorobenzonitrile]"
9,30 to 300 nM,"COc1ccc(-c2ccc3nc(N4CCC(N)CC4)nc(-c4ccc(C#N)nc4)c3c2)cc1F [Compound 24, 5-(2-(4-aminopiperidin-1-yl)-6-(3-fluoro-4-methoxyphenyl)quinazolin-4-yl)pyridinecarbonitrile]"
10,30 to 300 nM,"N#Cc1ccc(-c2nc(N3CCC(N)CC3)nc3c2CN(c2ccccc2C(F)(F)F)CC3)cc1F [Compound 92, 4-(2-(4-aminopiperidin-1-yl)-6-(2-(trifluoromethyl)phenyl)-5,6,7,8-tetrahydropyrido[4,3-d]pyrimidin-4-yl)-2-fluorobenzonitrile]"
11,≤ 30 nM,N#Cc1ccc(-c2nc(N3CCC(N)CC3)nc3c(F)cc(-c4c(F)cccc4C(F)(F)F)cc23)cc1F [Compound 82]
12,30 to 300 nM,"N#Cc1ccc(-c2nc(N3CCC(N)CC3)nc3ccc(-c4ccccc4OC(F)(F)F)cc23)cc1F [Compound 13, 4-(2-(4-aminopiperidin-1-yl)-6-(2-(trifluoromethoxy)phenyl)quinazolin-4-yl)-2-fluorobenzonitrile]"
13,30 to 300 nM,"Cc1nn(C)c(C)c1-c1ccc2nc(NC[C@H]3CCNC3)nc(-c3ccc(C#N)c(F)c3)c2c1 [Compound 49, (S)-2-fluoro-4-(2-((pyrrolidin-3-ylmethyl)amino)-6-(1,3,5-trimethyl-1H-pyrazol-4-yl)quinazolin-4-yl)benzonitrile]"
14,≤ 30 nM,Cc1cccc(Cl)c1-c1ccc2nc(NC[C@H]3CCNC3)nc(-c3ccc(C#N)c(F)c3)c2c1 [Compound 53]
15,30 to 300 nM,"COc1ccc(-c2ccc3nc(N4CCC(N)CC4)nc(-c4ccc(C#N)cc4)c3c2)cc1F [Compound 25, 4-(2-(4-aminopiperidin-1-yl)-6-(3-fluoro-4-methoxyphenyl)quinazolin-4-yl)benzonitrile]"
16,30 to 300 nM,"N#Cc1ccc(-c2nc(N3CC[C@@H](N)[C@H](F)C3)nc3ccc(-c4c(F)cccc4C(F)(F)F)cc23)cc1F [Compound 84, 4-(2-((3R,4R)-4-amino-3-fluoropiperidin-1-yl)-6-(2-fluoro-6-(trifluoromethyl)phenyl)quinazolin-4-yl)-2-fluorobenzonitrile]"
17,30 to 300 nM,"Cn1ncc2cccc(N3CCc4nc(N5CCC(N)CC5)nc(-c5ccc(C#N)c(F)c5)c4C3)c21 [Compound 94, 4-(2-(4-aminopiperidin-1-yl)-6-(1-methyl-1H-indazol-7-yl)-5,6,7,8-tetrahydropyrido[4,3-d]pyrimidin-4-yl)-2-fluorobenzonitrile]"

row,IC50,Structure (SMILES)
1,30 to 300 nM,"Cc1ccccc1-c1ccc2nc(N3CCC(N)CC3)nc(-c3ccc(C#N)c(F)c3)c2c1 [Compound 6, 4-(2-(4-aminopiperidin-1-yl)-6-(o-methylphenyl)quinazolin-4-yl)-2-fluorobenzonitrile]"
2,30 to 300 nM,"COc1ccc(-c2ccc3nc(NC[C@@H]4CCNC4)nc(-c4ccc(C#N)c(F)c4)c3c2)cc1F [Compound 36, (R)-2-fluoro-4-(6-(3-fluoro-4-methoxyphenyl)-2-((pyrrolidin-3-ylmethyl)amino)quinazolin-4-yl)benzonitrile]"
3,≤ 30 nM,"N#Cc1ccc(-c2nc(NC[C@H]3CCNC3)nc3ccc(-c4cccc(F)c4C(F)(F)F)cc23)cc1F [Compound 57, (S)-4-(6-(3-fluoro-2-(trifluoromethylphenyl)-2-(pyrrolidin-3-ylmethyl)amino)quinazolin-4-yl)-2-fluorobenzonitrile]"
4,30 to 300 nM,"COc1ccc(-c2ccc3nc(NC[C@H]4CCNC4)nc(-c4ccc(C#N)c(F)c4)c3c2)cc1F [Compound 35, (S)-2-fluoro-4-(6-(3-fluoro-4-methoxyphenyl)-2-((pyrrolidin-3-ylmethyl)amino)quinazolin-4-yl)benzonitrile]"
5,≤ 30 nM,"N#Cc1ccc(-c2nc(N3CC[C@H](N)[C@H](F)C3)nc3ccc(-c4c(F)cccc4C(F)(F)F)cc23)cc1F [Compound 67, 4-(2-((3R,4S)-4-amino-3-fluoropiperidin-1-yl)-6-(2-fluoro-6-(trifluoromethyl)phenyl)quinazolin-4-yl)-2-fluorobenzonitrile]"
6,≤ 30 nM,"N#Cc1ccc(-c2nc(N3CCCC[C@@H](N)C3)nc3ccc(-c4c(F)cccc4C(F)(F)F)cc23)cc1F [Compound 87, (R)-4-(2-(3-aminoazepan-1-yl)-6-(2-fluoro-6-(trifluoromethyl)phenyl)quinazolin-4-yl)-2-fluorobenzonitrile]"
7,30 to 300 nM,N#Cc1ccc(-c2nc(NC[C@H]3CCNC3)nc3ccc(-c4c(Cl)cccc4C(F)(F)F)cc23)cc1F [Compound 52]
8,≤ 30 nM,"N#Cc1ccc(-c2nc(N3CCC(N)CC3)nc3ccc(-c4c(F)cccc4Cl)cc23)cc1F [Compound 22, 4-(2-(4-Aminopiperidin-1-yl)-6-(2-chloro-6-fluorophenyl)quinazolin-4-yl)-2-fluorobenzonitrile]"
9,≤ 30 nM,"Cn1ncc2cccc(-c3ccc4nc(N5CCC(N)CC5)nc(-c5ccc(C#N)c(F)c5)c4c3)c21 [Compound 11, 4-(2-(4-aminopiperidin-1-yl)-6-(1-methyl-1H-indazol-7-yl)quinazolin-4-yl)-2-fluorobenzonitrile]"
10,≤ 30 nM,"CNC1CCN(c2nc(-c3ccc(C#N)c(F)c3)c3cc(-c4c(F)cccc4C(F)(F)F)ccc3n2)CC1 [Compound 66, 2-Fluoro-4-(6-(2-fluoro-6-(trifluoromethyl)phenyl)-2-(4-(methylamino)piperidin-1-yl)quinazolin-4-yl)benzonitrile]"
11,30 to 300 nM,"COc1ccc(-c2ccc3nc(NCC4CCNC4)nc(-c4ccc(C#N)c(F)c4)c3c2)cc1F (stereo not drawn) [Compound 29, 2-Fluoro-4-(6-(3-fluoro-4-methoxyphenyl)-2-((pyrrolidin-3-ylmethyl)amino)quinazolin-4-yl)benzonitrile]"
12,≤ 30 nM,"CC1(C)CN(c2nc(-c3ccc(C#N)c(F)c3)c3cc(-c4c(F)cccc4C(F)(F)F)ccc3n2)CCC1N (stereo not drawn) [Compound 71, 4-(2-(4-amino-3,3-dimethylpiperidin-1-yl)-6-(2-fluoro-6-(trifluoromethyl)phenyl)quinazolin-4-yl)-2-fluorobenzonitrile]"
13,≤ 30 nM,"COC1=CC=C(c2c(-c3ccc(C#N)c(F)c3)nc(N3CCC(N)CC3)n(C)c2=O)CC1F (stereo not drawn) [CC90011, reference compound]"
14,≤ 30 nM,"N#Cc1ccc(-c2nc(N3CCC(N)CC3)nc3ccc(-c4c(Cl)cccc4Cl)cc23)cc1F [Compound 20, 4-(2-(4-aminopiperidin-1-yl)-6-(2,6-dichlorophenyl)quinazolin-4-yl)-2-fluorobenzonitrile]"
15,≤ 30 nM,"C[C@@H]1CN(c2nc(-c3ccc(C#N)c(F)c3)c3cc(-c4c(F)cccc4C(F)(F)F)ccc3n2)CC[C@H]1N [Compound 68, 4-(2-((3R,4R)-4-amino-3-methylpiperidin-1-yl)-6-(2-fluoro-6-(trifluoromethyl)phenyl)quinazolin-4-yl)-2-fluorobenzonitrile]"
16,≤ 30 nM,"N#Cc1ccc(-c2nc(N3CCC[C@@H](N)C3)nc3ccc(-c4c(F)cccc4C(F)(F)F)cc23)cc1F [Compound 74, (R)-4-(2-(3-aminopiperidin-1-yl)-6-(2-fluoro-6-(trifluoromethyl)phenyl)quinazolin-4-yl)-2-fluorobenzonitrile]"
